Assay results published in patent US7183304B2, “Heterocyclic compounds and methods of use” (Novartis AG, priority 2001, dated 2007).

Columns and labels:
Type in all cases: biochemical
Details in all cases: TR-FRET coactivator (SRC-1) recruitment
[1] = target: T1, PPARγ receptor (GST-hPPARγ LBD) (Homo sapiens, UniProt P37231); experiment: PPARγ functional binding assay (CARLA, TR-FRET)
T1 construct: GST-hPPARγ LBD (amino acids 175–476); made in house; host or cells: E. coli BL21 (DE3), pGEX vector
T1 sequence (P37231 175-476 isoform P37231-2): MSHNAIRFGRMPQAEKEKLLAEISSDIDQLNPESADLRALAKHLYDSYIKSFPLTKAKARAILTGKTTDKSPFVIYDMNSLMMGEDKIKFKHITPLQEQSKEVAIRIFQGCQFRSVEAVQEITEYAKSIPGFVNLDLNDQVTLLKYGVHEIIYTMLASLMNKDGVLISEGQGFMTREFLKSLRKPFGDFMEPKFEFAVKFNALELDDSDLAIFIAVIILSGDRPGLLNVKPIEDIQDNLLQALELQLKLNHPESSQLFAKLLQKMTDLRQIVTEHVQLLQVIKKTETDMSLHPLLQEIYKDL
Method: (§1) The in vitro functional binding to the PPARα, PPARδ and PPARγ receptors is determined as follows:
(§2) The functional binding assays for the PPARα, PPARδ and PPARγ receptors are a variation of the coactivator-dependent receptor ligand assay (CARLA) (see Krey et al., “Fatty Acids, Eicosanoids, and Hypolipidemic Agents Identified as Ligands of Peroxisome Proliferator-Activated Receptors by Coactivator-Dependent Receptor Ligand Assay”, Molecular Endocrinology, Vol. 11, pp. 779–791 (1997)). The present CARLA assays use a TR-FRET detection method previously reviewed (see Hemmila, “LANCE: Homogeneous Assay Platform for HTS”, J. Biomol. Screening, Vol. 4, pp. 303–307 (1999); Mathis, “HTRF Technology”, J. Biomol. Screening, Vol. 4, pp. 309–313 (1999)). All assays included 3 nM of the glutathione-S-transferase (GST) fusion proteins of either the hPPARα ligand binding domain (LBD) (amino acids 167–468) (GST-hPPARα LBD), GST-hPPARδ LBD (amino acids 139–442) or GST-hPPARγ LBD (amino acids 175–476); 3 nM Eu-labeled anti-GST antibody (Wallac); 30 nM biotinylated steroid receptor coactivator-1 (SRC-1) peptide (an N-terminal biotinylated peptide, […], derived from amino acids 676–700 of SRC-1); and 10 nM streptavidin-labelled allophycocyanin (APC; Prozyme). The binding of a ligand to a PPAR LBD alters the conformation of the LBD and permits the biotinylated SRC-1 peptide to bind. This brings the Eu-labeled anti-GST antibody and the strepavidin-labeled APC in close proximity, thereby facilitating fluorescence energy transfer. The biotinylated SRC-1 peptide is prepared by standard solid-phase peptide synthetic methods. The GST-PPAR LBDs are expressed in pGEX vectors (Amersham Pharmacia) in the E. coli strain BL21 (DE3) using standard expression conditions at 18° C. In some cases the GST-PPAR LBDs are co-expressed with groESL. […] After mixing all components, the reaction mixture stands for 3 hours at room temperature before reading the TR-FRET (Time-Resolved Fluorescence Resonance Energy Transfer) signal on a Wallac Victor 2 plate reader (measuring the ratio of signals at […]). […]

[2] = target: T2, PPARδ receptor (GST-hPPARδ LBD) (Homo sapiens, UniProt Q03181); experiment: PPARδ functional binding assay (CARLA, TR-FRET)
T2 construct: GST-hPPARδ LBD (amino acids 139–442); made in house; host or cells: E. coli BL21 (DE3), pGEX vector
T2 sequence (Q03181 139-441 limits assumed): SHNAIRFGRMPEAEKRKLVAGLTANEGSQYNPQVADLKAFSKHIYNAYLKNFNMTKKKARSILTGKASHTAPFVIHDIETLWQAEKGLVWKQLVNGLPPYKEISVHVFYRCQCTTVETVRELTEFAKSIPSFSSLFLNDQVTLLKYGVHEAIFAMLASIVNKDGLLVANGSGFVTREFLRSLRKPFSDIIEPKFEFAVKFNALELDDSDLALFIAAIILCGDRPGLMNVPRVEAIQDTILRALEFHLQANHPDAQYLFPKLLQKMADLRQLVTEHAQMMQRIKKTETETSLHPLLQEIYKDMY
T2 sequence (Q15788 676-700 partner limits assumed): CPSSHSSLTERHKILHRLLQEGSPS
Method: as §1, §2

[3] = target: T3, PPARα receptor (GST-hPPARα LBD) (Homo sapiens, UniProt Q07869); experiment: PPARα functional binding assay (CARLA, TR-FRET)
T3 construct: made in house; host or cells: E. coli BL21 (DE3), pGEX vector
T3 sequence (Q07869 167-468): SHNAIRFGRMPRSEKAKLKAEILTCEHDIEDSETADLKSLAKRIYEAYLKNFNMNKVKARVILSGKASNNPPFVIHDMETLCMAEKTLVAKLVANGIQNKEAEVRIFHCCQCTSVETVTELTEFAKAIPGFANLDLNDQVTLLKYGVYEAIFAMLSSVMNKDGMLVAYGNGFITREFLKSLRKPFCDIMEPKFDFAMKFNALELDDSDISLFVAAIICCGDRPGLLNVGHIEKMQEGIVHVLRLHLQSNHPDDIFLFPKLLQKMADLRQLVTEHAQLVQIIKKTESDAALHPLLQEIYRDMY
Method: as §1, §2

SMILES	EC50 [1]	EC50 [2]	EC50 [3]
CCCc1cc(Oc2ccccc2)ccc1OCCCOc1ccc(S(=O)(=O)N2c3ccccc3C[C@@H]2C(=O)O)cc1 [Example 1, (R)-1-{4-[3-(4-Phenoxy-2-propyl-phenoxy)-propoxy]-benzenesulfonyl}-2,3-dihydro-1H-indole-2-carboxylic acid]	~23 nM	~173 nM	~27 nM
Cc1oc(-c2ccccc2)nc1COc1ccc(S(=O)(=O)N2CC[C@@H]2C(=O)O)cc1 [Example 5–10, (R)-1-[4-(5-Methyl-2-phenyl-oxazol-4-ylmethoxy)-benzenesulfonyl]-azetidine-2-carboxylic acid]	~3 nM	~1250 nM	~3 nM
Cc1oc(-c2ccccc2)nc1COc1ccc(S(=O)(=O)N2CCC[C@@H]2C(=O)O)cc1 [Example 6–39, (R)-1-[4-(5-Methyl-2-phenyl-oxazol-4-ylmethoxy)-benzenesulfonyl]-pyrrolidine-2-carboxylic acid]	~2 nM	~1160 nM	~7 nM
